According to ChEMBL document CHEMBL3991943, “Pharmaceutical formulations comprising salts of a protein kinase inhibitor and methods of using same” (2013):

Assays:
Rattus norvegicus [1] = assay: Acute toxicity in rat assessed as induction of red urine excretion at 10 mg/kg, iv administered for 30 mins measured after 1 hr post dose; format: organism-based; conditions: in vivo
Rattus norvegicus [2] = assay: Acute toxicity in rat assessed as lethargy at 10 mg/kg, iv administered for 30 mins measured at 1 hr post dose; format: organism-based; conditions: in vivo
Rattus norvegicus [3] = assay: Acute toxicity in rat assessed as labored breathing at 10 mg/kg, iv administered for 30 mins measured immediately and 10 mins post dose; format: organism-based; conditions: in vivo
Rattus norvegicus [4] = assay: Acute toxicity in rat assessed as recumbency at 10 mg/kg, iv administered for 30 mins measured immediately and 10 mins post dose; format: organism-based; conditions: in vivo
Rattus norvegicus [5] = assay: Acute toxicity in rat assessed as induction of red urine excretion at 10 mg/kg, iv administered for 30 mins measured immediately, 10 mins and 1 hr post dose; format: organism-based; conditions: in vivo
Rattus norvegicus [6] = assay: Acute toxicity in rat assessed as mortality at 10 mg/kg, iv administered for 30 mins measured post dose; format: organism-based; conditions: in vivo, 0.5 h
Mus musculus [7] = assay: Toxicity in athymic nude mouse xenografted with human TT cells at 7.5 to 15 mg/kg, ip qd administered for 2 weeks; format: organism-based; conditions: in vivo, 336 h
OVCAR-3 = assay: Induction of DNA damage in human OVCAR3 cells assessed as increase in gamma-H2AX levels at 10 uM in presence of topotecan; format: functional
Mus musculus [8] = assay: Toxicity in athymic nude mouse xenografted with human HT-29 cells assessed as overt toxicity at 10 to 20 mg/kg, ip qd administered 5 days for 2 weeks; format: organism-based; conditions: in vivo
Mus musculus [9] = assay: Toxicity in athymic nude mouse xenografted with human HT-29 cells assessed as loss of body weight at 10 to 20 mg/kg, ip qd administered 5 days for 2 weeks; format: organism-based; conditions: in vivo
A549 = assay: Antitumor activity against human A549 cells xenografted in athymic nude mouse assessed as tumor growth at 10 mg/kg, po qd administered 5 days for 3 weeks measured on day 26 (reference value: 43 mm3/day); format: functional
Mus musculus [10] = assay: Toxicity in athymic nude mouse xenografted with human A549 cells assessed as loss of body weight at 50 to 150 mg/kg, po qd administered 5 days for 3 weeks; format: organism-based; conditions: in vivo
Canis familiaris [11] = assay: Acute toxicity in Beagle dog assessed as weight gain at 10 mg/kg, iv administered for 48 hrs followed by 20 mg/kg, iv administered for 3 days measured everyday after second dose; format: organism-based, Canis lupus familiaris; conditions: in vivo
Canis familiaris [12] = assay: Acute toxicity in male Beagle dog assessed as adverse clinical signs at 10 mg/kg, iv; format: organism-based, Canis lupus familiaris; conditions: in vivo
Canis familiaris [13] = assay: Acute toxicity in Beagle dog assessed as adverse events at 10 mg/kg, iv administered for 48 hrs followed by 20 mg/kg, iv administered for 3 days measured everyday after second dose; format: organism-based, Canis lupus familiaris; conditions: in vivo
Canis familiaris [14] = assay: Acute toxicity in Beagle dog assessed as thrombus formation in veins at 10 mg/kg, iv administered for 48 hrs followed by 20 mg/kg, iv administered for 3 days measured post dose; format: organism-based, Canis lupus familiaris; conditions: in vivo
Canis familiaris [15] = assay: Acute toxicity in male Beagle dog assessed as mild venous congestion in meningeal vein between brain hemispheres and in venous sinus on cranial floor at 10 mg/kg, iv administered for 48 hrs followed by 20 mg/kg, iv administered for 3 days measured post dose; format: organism-based, Canis lupus familiaris; conditions: in vivo
Canis familiaris [16] = assay: Acute toxicity in Beagle dog assessed as animal appearance at 0.625 to 20 mg/kg, iv administered with 48 to 96 hrs between dose escalations with exception of 11 days between dose 5 and 6 measured after doses 1 through 5 and prior to dose 6; format: organism-based, Canis lupus familiaris; conditions: in vivo
Canis familiaris [17] = assay: Acute toxicity in Beagle dog assessed as anxiety at 0.625 to 20 mg/kg, iv dosed with 48 to 96 hrs between dose escalations with exception of 11 days between dose 5 and 6 measured during dose 6 administration; format: organism-based, Canis lupus familiaris; conditions: in vivo
Canis familiaris [18] = assay: Acute toxicity in Beagle dog assessed as facial swelling at 0.625 to 20 mg/kg, iv dosed with 48 to 96 hrs between dose escalations with exception of 11 days between dose 5 and 6 measured during dose 6 administration; format: organism-based, Canis lupus familiaris; conditions: in vivo
Canis familiaris [19] = assay: Acute toxicity in Beagle dog assessed as urination at 0.625 to 20 mg/kg, iv dosed with 48 to 96 hrs between dose escalations with exception of 11 days between dose 5 and 6 measured during dose 6 administration; format: organism-based, Canis lupus familiaris; conditions: in vivo
Canis familiaris [20] = assay: Acute toxicity in Beagle dog assessed as defecation at 0.625 to 20 mg/kg, iv dosed with 48 to 96 hrs between dose escalations with exception of 11 days between dose 5 and 6 measured during dose 6 administration; format: organism-based, Canis lupus familiaris; conditions: in vivo
Canis familiaris [21] = assay: Acute toxicity in Beagle dog assessed as depression at 0.625 to 20 mg/kg, iv dosed with 48 to 96 hrs between dose escalations with exception of 11 days between dose 5 and 6 measured during dose 6 administration; format: organism-based, Canis lupus familiaris; conditions: in vivo
Canis familiaris [22] = assay: Acute toxicity in Beagle dog assessed as recumbency at 0.625 to 20 mg/kg, iv dosed with 48 to 96 hrs between dose escalations with exception of 11 days between dose 5 and 6 measured during dose 6 administration; format: organism-based, Canis lupus familiaris; conditions: in vivo
Canis familiaris [23] = assay: Acute toxicity in female Beagle dog assessed as mortality at 0.625 to 20 mg/kg, iv measured after 5 mins of completion of dose 6 administration; format: organism-based, Canis lupus familiaris; conditions: in vivo
Canis familiaris [24] = assay: Acute toxicity in male Beagle dog assessed as animal appearance at 0.625 to 20 mg/kg, iv dosed with 48 to 96 hrs between dose escalations with exception of 11 days between dose 5 and 6 measured following day after dose 6 administration; format: organism-based, Canis lupus familiaris; conditions: in vivo
Canis familiaris [25] = assay: Acute toxicity in female Beagle dog assessed as meningeal vessel congestion at 0.625 to 20 mg/kg, iv administered with 48 to 96 hrs between dose escalations with exception of 11 days between dose 5 and 6 measured after 21 days; format: organism-based, Canis lupus familiaris; conditions: in vivo, 504 h
Canis familiaris [26] = assay: Acute toxicity in Beagle dog assessed as weight gain at 0.625 to 20 mg/kg, iv dosed with 48 to 96 hrs between dose escalations with exception of 11 days between dose 5 and 6 measured during course of 21 study days; format: organism-based, Canis lupus familiaris; conditions: in vivo
Canis familiaris [27] = assay: Acute toxicity in female Beagle dog assessed as intestinal mucosal congestion at 0.625 to 20 mg/kg, iv administered with 48 to 96 hrs between dose escalations with exception of 11 days between dose 5 and 6 measured after 21 days; format: organism-based, Canis lupus familiaris; conditions: in vivo, 504 h
Canis familiaris [28] = assay: Acute toxicity in Beagle dog at 20 mg/kg, iv; format: organism-based, Canis lupus familiaris; conditions: in vivo
Rattus norvegicus [29] = assay: Acute toxicity in rat assessed as recumbency at 10 mg/kg, iv administered for 30 mins measured after 1 hr post dose; format: organism-based; conditions: in vivo
Rattus norvegicus [30] = assay: Acute toxicity in rat assessed as lethargy at 10 mg/kg, iv administered for 30 mins measured after 1 hr post dose; format: organism-based; conditions: in vivo
Rattus norvegicus [31] = assay: Acute toxicity in rat assessed as red tinged urine at 10 mg/kg, iv administered for 30 mins measured post dose; format: organism-based; conditions: in vivo, 0.5 h
Rattus norvegicus [32] = assay: Acute toxicity in rat assessed as dark red mottled lungs at 10 mg/kg, iv administered for 30 mins measured post dose; format: organism-based; conditions: in vivo, 0.5 h
Rattus norvegicus [33] = assay: Acute toxicity in rat assessed as normal appearance at 10 mg/kg, iv administered for 30 mins measured on day 4; format: organism-based; conditions: in vivo, 0.5 h
Rattus norvegicus [34] = assay: Acute toxicity in rat assessed as red urine at 0.625 to 10 mg/kg, iv administered as single dose for 30 mins measured immediately, 10 mins and 1 hr post dose; format: organism-based; conditions: in vivo
Rattus norvegicus [35] = assay: Acute toxicity in rat assessed as wobbly appearance at 0.625 to 10 mg/kg, iv administered as single dose for 30 mins measured immediately, 10 mins and 1 hr post dose; format: organism-based; conditions: in vivo
Rattus norvegicus [36] = assay: Acute toxicity in rat assessed as loss of body weight at 0.625 to 10 mg/kg, iv administered as single dose for 30 mins measured on day 2; format: organism-based; conditions: in vivo, 0.5 h
Rattus norvegicus [37] = assay: Acute toxicity in rat assessed as normal appearance at 0.625 to 10 mg/kg, iv administered as single dose for 30 mins measured on day 4; format: organism-based; conditions: in vivo, 0.5 h
Rattus norvegicus [38] = assay: Acute toxicity in rat assessed as bright red lungs at 10 mg/kg, iv administered as single dose for 30 mins measured on day 4; format: organism-based; conditions: in vivo, 0.5 h
Mus musculus [39] = assay: Toxicity in athymic nude mouse xenografted with human A549 cells assessed as loss of body weight at 10 mg/kg, po qd administered 5 days for 3 weeks; format: organism-based; conditions: in vivo

Compound: S=C(NCc1ccc2c(c1)OCO2)N1CCN(c2ncnc3c2oc2ccccc23)CC1 [AMUVATINIB]
- Activity (Rattus norvegicus [1]): Non-Toxic
- Activity (Rattus norvegicus [2]): Toxic
- Activity (Rattus norvegicus [3]): Toxic
- Activity (Rattus norvegicus [4]): Toxic
- Activity (Rattus norvegicus [5]): Toxic
- Activity (Rattus norvegicus [6]): Toxic
- Activity (Mus musculus [7]): Non-Toxic
- Activity (OVCAR-3): 103%
- Activity (Mus musculus [8]): Toxic
- Activity (Mus musculus [9]): Non-Toxic
- Activity (A549): 19.5 mm3/day
- Activity (Mus musculus [10]): Non-Toxic
- Activity (Canis familiaris [11]): Toxic
- Activity (Canis familiaris [12]): Non-Toxic
- Activity (Canis familiaris [13]): Toxic
- Activity (Canis familiaris [14]): Toxic
- Activity (Canis familiaris [15]): Toxic
- Activity (Canis familiaris [16]): Non-Toxic
- Activity (Canis familiaris [17]): Toxic
- Activity (Canis familiaris [18]): Toxic
- Activity (Canis familiaris [19]): Toxic
- Activity (Canis familiaris [20]): Toxic
- Activity (Canis familiaris [21]): Toxic
- Activity (Canis familiaris [22]): Toxic
- Activity (Canis familiaris [23]): Toxic
- Activity (Canis familiaris [24]): Non-Toxic
- Activity (Canis familiaris [25]): Toxic
- Activity (Canis familiaris [26]): Toxic
- Activity (Canis familiaris [27]): Toxic
- Activity (Canis familiaris [28]): Toxic
- Activity (Rattus norvegicus [29]): Non-Toxic
- Activity (Rattus norvegicus [30]): Non-Toxic
- Activity (Rattus norvegicus [31]): Toxic
- Activity (Rattus norvegicus [32]): Toxic
- Activity (Rattus norvegicus [33]): Non-Toxic
- Activity (Rattus norvegicus [34]): Toxic
- Activity (Rattus norvegicus [35]): Toxic
- Activity (Rattus norvegicus [36]): Toxic
- Activity (Rattus norvegicus [37]): Non-Toxic
- Activity (Rattus norvegicus [38]): Toxic

Compound: O=c1[nH]cc(F)c(=O)[nH]1 [FLUOROURACIL]
- Activity (Mus musculus [39]): Non-Toxic
